Laboratory results: patent publication US9731001B2, “Three-dimensional cavities of dendritic cell immunoreceptor (DCIR), compounds binding thereto and therapeutic applications related to inhibition of human immunodeficiency virus type-1 (HIV-1)” (priority 2011, dated 2017)
“Also recorded” adds a separate entry of the source.

Key:
Assay type in all cases: cell-based
[1] = target: T1, DC-SIGN (Homo sapiens, UniProt Q9NNX6); assay: HIV-1 binding to Raji-DC-SIGN cells (p24); conditions: NL4-3 60 min
T1 construct: expressed in transfected cells; host or cells: Raji cells stably transfected with a DC-SIGN plasmid
T1 sequence (Q9NNX6 1-404): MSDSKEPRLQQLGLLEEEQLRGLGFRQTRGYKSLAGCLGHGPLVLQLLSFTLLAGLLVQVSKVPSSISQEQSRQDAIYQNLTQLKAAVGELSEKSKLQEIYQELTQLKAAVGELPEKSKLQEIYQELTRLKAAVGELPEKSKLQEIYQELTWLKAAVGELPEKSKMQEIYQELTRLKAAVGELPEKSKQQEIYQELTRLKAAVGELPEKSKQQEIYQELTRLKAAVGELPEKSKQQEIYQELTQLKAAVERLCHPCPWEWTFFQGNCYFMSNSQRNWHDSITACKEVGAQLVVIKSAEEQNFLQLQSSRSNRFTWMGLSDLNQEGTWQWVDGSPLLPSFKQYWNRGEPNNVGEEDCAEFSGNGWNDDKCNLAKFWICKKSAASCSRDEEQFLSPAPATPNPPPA
Experimental: Raji-DC-SIGN cells were treated for 10 min at 37° C. with inhibitors A1 and A4 directed against the site A and B1 and B2 directed against the site B, or with DMSO. Afterwards, cells were pulsed with NL4-3 for 60 min, rinsed thrice with PBS were made to remove unadsorbed virus, and cell-associated viruses were quantified by measuring p24 content. Data shown correspond to the means±SEM of 3 independent experiments performed in triplicate.
(§1) Where indicated, 1×10^6 parental Raji-CD4 cells (DCIR-negative), Raji-CD4-DCIR or Raji-DC-SIGN transfectants were pre-treated with the indicated amount of a chemical inhibitor for 10 min. Cells were then pulsed with NL4-3 (an equivalent of 100 ng of p24) for 60 min at 37° C. The virus-cell mixture was then washed three times with PBS to remove unbound virus and re-suspended in PBS containing 1% BSA. Binding/entry was then determined by the p24 content by ELISA as above. For the infection assay, Raji-CD4 and Raji-CD4-DCIR (1×10^6 cells) were exposed to NL4-3 viral stock (100 ng of p24) for 2 h at 37° C. After three washes with PBS to remove excess virus, cells were maintained in culture for up to 9 days. Cell-free culture supernatants were collected at the indicated time points and assayed for p24 content.

[2] = system: HIV-1 (NL4-3/Balenv); assay: HIV-1 binding assay on iMDDCs (p24); conditions: IM-MDDCs, 10 μM pre-incubation 10 min, NL4-3balenv 60 min
Experimental: (§2) FIG. 7 is bar graphs showing that selected site A and site B inhibitors decrease HIV-1 binding and infection of IM-MDDCs. Upper panel: IM-MDDCs were treated with two chemical inhibitors directed against site A (A1 and A4) and two inhibitors directed against site B (B1 and B2) (or DMSO) for 10 min at 37° C. Next, cells were pulsed with NL4-3balenv for 60 min at 37° C. and rinsed extensively before measuring p24 content. Lower panel: In some experiments, similarly treated IM-MDDCs were pulsed with NL4-3balenv for 2 h at 37° C., rinsed extensively, and maintained in complete culture medium supplemented with GM-CSF and IL-4 for up to 9 days with medium replenishment every 3 days. Cell-free culture supernatants were quantified by measuring p24 content. Data shown correspond to the means±SEM of 3 independent experiments performed in triplicate. The asterisks denotes statistically significant data (*, P<0.05; **, P<0.01; ***, P<0.001).
(§3) For assessing binding/entry, iMDDCs (3×10^5 cells in a final volume of 300 μl) were pre-treated with 10 μM of different chemical inhibitors for 10 min and exposed to NL4-3/Balenv (30 ng of p24) for 60 min at 37° C. After three washes with PBS, cells were re-suspended in PBS containing 1% BSA. The p24 content was determined by ELISA, while susceptibility of iMDDCs to HIV-1 infection was assessed by initially exposing 3×10^5 cells to NL4-3/Balenv (30 ng) at 37° C. for 2 h. After three washes with PBS, cells were maintained in complete RPMI 1640 supplemented with GM-CSF and IL-4 in 96-well plates, in a final volume of 200 μl. Every 3 days and for a 9-day period, half of the conditioned medium was collected and kept at −20° C. until assayed. Virus production was estimated as above by measuring p24 levels by ELISA.

[3] = system: HIV-1 (NL4-3); assay: HIV-1 infection assay on Raji-CD4 and Raji-CD4-DCIR cells (p24 in supernatant); conditions: Raji-CD4 vs Raji-CD4-DCIR, NL4-3 2 h, culture 3 d
Experimental: FIG. 5 is a bar graph showing that specific inhibitors against the site A (A1, A4) and site B (B1, B2) decrease infectivity of Raji-CD4-DCIR. Raji-CD4 and Raji-CD4-DCIR were treated with the inhibitors selected following experiments described in FIG. 4, or DMSO. Cells were then exposed to NL4-3 for 2 h, rinsed and maintained in culture for 3d. Cell-free culture supernatants were collected and assayed for p24 content. Data shown correspond to the means±SEM from 3 independent experiments performed with triplicate samples. The asterisk (*) denotes statistically significant data (*, P<0.05, ** P<0.01, *** P<0.001).
as §1

[4] = system: HIV-1 (NL4-3/Balenv); assay: HIV-1 infection assay on iMDDCs (p24 in supernatant); conditions: IM-MDDCs, NL4-3balenv 2 h, culture up to 9 days
Experimental: as §2, §3

[5] = target: T2, DCIR (Homo sapiens, UniProt Q9UMR7); assay: HIV-1 binding/entry assay on Raji-CD4-DCIR cells (cell-associated p24); conditions: 10 μM pre-treatment 10 min; NL4-3 60 min; p24 content
T2 construct: expressed in transfected cells; host or cells: Raji-CD4 (human B cell line stably expressing human CD4), retroviral transduction
T2 sequence (Q9UMR7 1-237): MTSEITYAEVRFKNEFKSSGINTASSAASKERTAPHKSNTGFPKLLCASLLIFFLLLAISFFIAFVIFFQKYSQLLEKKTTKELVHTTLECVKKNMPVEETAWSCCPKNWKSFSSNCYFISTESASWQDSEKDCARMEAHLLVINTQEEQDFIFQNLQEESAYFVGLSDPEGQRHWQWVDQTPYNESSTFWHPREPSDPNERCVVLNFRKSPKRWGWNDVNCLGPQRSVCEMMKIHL
Experimental: FIG. 4 is a bar graph showing that inhibitors decrease HIV-1 binding on DCIR. Raji-CD4-DCIR cells were treated with 10 μM of four site A inhibitors (A1, A2, A3 and A4) and three site B inhibitors (B1, B2 and B3) (or with vehicle (DMSO) only) for 10 min at 37° C. Thereafter, cells were pulsed with NL4-3 for 60 min. After three washes with PBS to remove unadsorbed virus, the abundance of cell-associated viruses was quantified by measuring p24 content. Data shown correspond to the means±SEM of three independent experiments performed with triplicate samples. The asterisk (*) denotes statistically significant data (*, P<0.05, ** P<0.01, *** P<0.001).
as §1

| SMILES | HIV-1 binding to DC-SIGN [1] | HIV-1 binding to DCs [2] | HIV-1 production [3] | productive infection of DCs [4] | HIV-1 attachment to Raji-CD4-DCIR cells [5] |
| --- | --- | --- | --- | --- | --- |
| O=C(c1ccccc1)c1cc2ccccc2o1 [Compound B1, 1-benzofuran-2-yl(phenyl)methanone] | do not block HIV-1 attachment to DC-SIGN | decreased significantly | decreased HIV-1 production only in DCIR-expressing cells | blocked productive infection | statistically significant decrease; also recorded: proved active against HIV-1 binding |
| O=C(/C=C/C=C/c1ccccc1)c1ccccc1 [Compound A1, 1,5-diphenyl-2,4-pentadien-1-one] | do not block HIV-1 attachment to DC-SIGN | decreased significantly | decreased HIV-1 production only in DCIR-expressing cells | blocked productive infection | statistically significant decrease; also recorded: proved active against HIV-1 binding |
| Cc1ccc(/N=[N+](\[O-])c2ccc(C)cc2)cc1 [Compound B2, 1-methyl-4-[(4-methylphenyl)-NNO-azoxy]benzene] | do not block HIV-1 attachment to DC-SIGN | decreased significantly | decreased HIV-1 production only in DCIR-expressing cells | blocked productive infection | statistically significant decrease |
